Laboratory results from publication PMC10560236, “A protein kinase C α and β inhibitor blunts hyperphagia to halt renal function decline and reduces adiposity in a rat model of obesity-driven type 2 diabetes” (Scientific Reports, 2023).
pIC50: −log10 of the molar value. “And” between values parts separate entries of the source, which are not always exact repeats. Equal values may be shown once.

Key:
ZSF1 obese rats = assay: 10-week efficacy study with chow dosing; format: in vivo, rat
Source text: Male ZSF1 (ZSF1-Lepr^faLepr^cp/Crl) lean rats (strain code #379) and ZSF1 obese rats (strain code #378) were obtained from Charles River Laboratories (Wilmington, MA). Male rats for all groups were obtained at 8–9 weeks of age at which time they were switched to high carbohydrate Purina 5008 chow (27% kcal protein, 17% kcal fat, 57% kcal carbohydrates). At 21–22 weeks of age they were then enrolled in the 10 week study. All groups were maintained on normal Purina 5008 chow for the 10 week study except the Cmpd 1 group, which was provided Purina 5008 chow formulated with 0.744g Cmpd 1 per kg chow (approximately 50 mpk/d Cmpd 1 administration; n = 5 Lean, n = 12 Obese, n = 11 Cmpd 1, n = 11 Food matched—see Fig. 4a). The amount of food provided to the Food matched group each week was determined by the estimated food consumption by the Cmpd 1 group the previous week. For all three ZSF1 obese groups, 3 animals were taken down at study mid-point for an interim analysis. All experimental protocols involving animals were reviewed and approved by the Pfizer Inc. Institutional Animal Care and Use Committee (IACUC). All experiments were performed in accordance with relevant guidelines and regulations, and all methods are reported in accordance with ARRIVE guidelines (https://arriveguidelines.org).
Male ZSF1 obese rats that had been maintained on Purina 5008 chow were switched to Purina 5008 chow with or without 0.744 g/kg Cmpd 1 at 22 weeks of age. The study duration was 10 weeks. Estimated food consumption monitored weekly. An additional group of ZSF1 obese rats was included which received an amount of Purina 5008 chow to match the previous week’s estimated food consumption by the Cmpd 1 group. Five male ZSF1 lean littermates served as baseline controls. Intermediate blood samples were taken through tail vein. 24-h urine samples at weeks 0, 5 and 10 were collected from animals in metabolic cages. Animals were sacrificed by CO2 asphyxiation followed by blood collection via cardiac puncture and tissues fixation in 10% neutral buffered formalin for histology. Unfixed inguinal white adipose tissue was also collected at study termination for downstream molecular analyses.
All assays except the insulin assay were run with the ADVIA 1800 Chemistry System (Siemens Medical Systems Diagnostics, Tarrytown, NY, USA). The serum insulin assay was run using a SpectraMax® Plus384 Absorbance Microplate Reader (Molecular Devices San Jose, CA, USA). Siemens Medical System assay kits 10376501, 10311891, 10335892, and 10335891 were used for cholesterol, low density lipoprotein (LDL)-cholesterol, triglycerides, and glucose, respectively. Roche HDL-C Reagent 3rd generation assay kit 4713257190 was used for high density lipoprotein (HDL)-cholesterol assay. For insulin, an ALPCO Diagnostics assay kit 80-INSMS-E01 was used.
Samples of formalin-fixed, paraffin embedded (FFPE) liver and kidney were sectioned and stained for Hematoxylin and Eosin (HE) and evaluated microscopically by a board-certified veterinary pathologist blinded to the treatment groups. In the kidney, microscopic features were assigned an end stage renal disease (ESRD) severity score of 1–5 (minimal to severe) using the following criteria: Grade 1 (minimal): < 10% of parenchyma affected, few glomeruli affected and no Bowman’s capsule thickening with only few protein casts and basophilic tubules observed; Grade 2 (mild): 10–25% of renal parenchyma affected, there is scattered thickening of Bowman’s capsule, +/− synechiation; Grade 3 (moderate): 26–50% of renal parenchyma affected, glomerular and tubulointerstitial changes are present; Grade 4 (marked): 51–75% of renal parenchyma affected, glomerular and tubulointerstitial changes are present; Grade 5 (severe): > 75% of renal parenchyma affected, glomerular and tubulointerstitial changes are present. […]

PKCζ = molecular target: T1, PKCζ (Homo sapiens, UniProt Q05513); assay: Z'-Lyte recombinant enzyme assay, PKCζ; format: biochemical
T1 sequence (Q05513 1-592): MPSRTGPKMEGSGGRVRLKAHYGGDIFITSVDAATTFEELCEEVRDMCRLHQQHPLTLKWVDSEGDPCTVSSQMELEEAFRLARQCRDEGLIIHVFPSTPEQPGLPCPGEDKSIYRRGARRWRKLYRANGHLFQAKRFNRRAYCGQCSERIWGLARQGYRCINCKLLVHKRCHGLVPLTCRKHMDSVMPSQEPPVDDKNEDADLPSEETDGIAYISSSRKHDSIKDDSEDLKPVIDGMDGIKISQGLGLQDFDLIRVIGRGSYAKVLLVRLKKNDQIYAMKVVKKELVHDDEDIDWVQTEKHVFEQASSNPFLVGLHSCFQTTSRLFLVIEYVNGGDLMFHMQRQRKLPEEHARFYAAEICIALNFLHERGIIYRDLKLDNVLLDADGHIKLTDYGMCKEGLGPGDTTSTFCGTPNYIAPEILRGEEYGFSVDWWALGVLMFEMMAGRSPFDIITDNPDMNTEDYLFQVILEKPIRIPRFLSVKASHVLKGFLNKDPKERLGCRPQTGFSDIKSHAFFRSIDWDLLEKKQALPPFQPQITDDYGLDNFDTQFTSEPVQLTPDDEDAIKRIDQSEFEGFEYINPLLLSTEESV
Experimental: (§1) Half maximal inhibitory concentrations of Cmpd 1 were determined by Z’-Lyte biochemical assays (Life Technologies SelectScreen™ Kinase Profiling Services, Thermo Fisher Scientific). Kinome selectivity was determined at 1 μM Cmpd 1 concentration against a panel of 119 kinases. The original kinome tree in Fig. 1b was taken from Ref.[68].

PKC family members = assay: Selectivity within PKC family (enzymatic assays); format: biochemical; conditions: PKC family members other than α, β, θ, γ
Experimental: as §1

ZSF1 lean and SD rats = assay: 7-day food consumption and body weight study, Cmpd 1 chow, ZSF1 lean and SD rats; format: in vivo, rat; conditions: 7 days
Source text: To evaluate food consumption in different rat strains, cohorts of 10 male ZSF1 obese rats, 8 male ZSF1 lean littermate rats, and 10 age-matched male Sprague Dawley (SD) rats were divided into two groups and fed chow with or without 0.744 g/kg Cmpd 1 (Cmpd 1 chow) for 7 days.

SMILES: Cc1ncc(F)c(Nc2n[nH]c3c2CN(C(=O)N2C[C@@H](C)N(CC4CCOCC4)C[C@@H]2C)C3(C)C)n1 [Cmpd 1, 5-[(2S,5R)-2,5-dimethyl-4-(tetrahydro-2H-pyran-4-ylmethyl)piperazin-l-yl]carbonyl-N-(5-fluoro-2-methylpyrimidin-4-yl)-6,6-dimethyl-1,4,5,6-tetrahydropyrrolo[3,4-c]pyrazol-3-amine]
- Progressive decline in renal function (uMALB:creatinine ratio, 24-h urinary protein excretion) (ZSF1 obese rats; 10-week study, same in Food matched group): virtually halted
- Average body weight at study termination (ZSF1 obese rats; 10 weeks Cmpd 1 chow): 504 g and 504 ± 35 g
- Estimated food consumption at study termination (ZSF1 obese rats; 10 weeks Cmpd 1 chow): 31 g/day
- Body weight less than Lean animals at study termination (ZSF1 obese rats; 10 weeks, not statistically different): approximately 7%
- Estimated average food consumption, first three days (ZSF1 obese rats; Cmpd 1 chow approx. 50 mpk/day): 22 g/day
- Reduction in food consumption versus Obese group, first three days (ZSF1 obese rats; Cmpd 1 chow approx. 50 mpk/day): 27%
- Animals with liver macrovacuolation score of 0 (ZSF1 obese rats; after 10 weeks of dosing, score 0–3): five of eight
- ESRD score at study termination (ZSF1 obese rats; blinded histology, versus Obese, comparable to Food matched group): reduced comparably
- Serum cholesterol and triglyceride profile versus Obese group (ZSF1 obese rats; non-fasting serum): improved
- Serum glucose levels (ZSF1 obese rats; non-fasting serum): elevated
- Serum AST versus Obese group (ZSF1 obese rats; non-fasting, 5 weeks, statistically significant, not evident at 10 weeks): increased
- Serum ALT versus Obese group (ZSF1 obese rats; non-fasting, 10 weeks, statistically significant): reduced
- Serum insulin (ZSF1 obese rats; non-fasting, week 5 study midpoint): 0.62 (± 0.35) ng/mL
- ESRD severity grade of representative kidney image (ZSF1 obese rats; study endpoint, representative image Fig. 6c): Grade 1 (Grade 1 (minimal): < 10% of parenchyma affected)
- Average body weight at study start (ZSF1 obese rats; study start, 21–22 weeks of age): 564 g
- iWAT weight (ZSF1 obese rats; study termination): 29 ± 5.5 g
- Increase in adipocyte size in iWAT (ZSF1 obese rats; study termination, histology, not in Food matched group): blunted
- Average CD45+ cell staining area in iWAT (ZSF1 obese rats; study termination, immunohistochemistry): 0.045 ± 0.025%
- Liver weights (ZSF1 obese rats; study termination, primarily reflected overall body weight differences): reduced
- pIC50 (PKCζ): < 5.00
- Selectivity against all other PKC family members (PKC family members): greater than 40 fold
- Body weight loss (ZSF1 lean and SD rats): did not
